The source of these data is patent publication US20250082584A1, “TRANSDERMAL THERAPEUTIC SYSTEM FOR THE TRANSDERMAL ADMINISTRATION OF SELEXIPAG” (LTS LOHMANN THERAPIE-SYSTEME AG, priority 2022, published 2025).

A short description of this data set: Permeation of Selexipag and active metabolite MRE-269 through fresh human skin in modified Keshary-Chien diffusion cells. The format is in vitro ADME. The method, then: For determination of Selexipag and the Selexipag derived active metabolite MRE-269 permeated from fresh human skin tissue the following experiment was performed.
Modified Keshary-Chien diffusion cells were used for this experiment, in which fresh human skin was used as barrier between the donor and the acceptor part. The acceptor compartment contained the acceptor medium (0.9% NaCl+3% Vanillin+0.5% Methyl-β-cyclodextrin+30% Acetonitrile in aqua purificata), the donor chamber contained a liquid solution of Selexipag in oleic acid, dipropylene glycol, ethanol and aqua purificata. The liquid solution Composition 1 was applied as suspension, with undissolved Selexipag, whereas Composition 2 was centrifuged prior to application and only the clear centrifugate was applied. The composition of the selexipag-containing coating Compositions 1 and 2 of are summarized below.
Fresh human skin from plastic surgery was used (upper arm, person). […]
The samples of acceptor solution were filtrated with syringe filters and analyzed with HPLC. Quantification of Selexipag was performed with an external standard. […]
After 168 hrs of permeation the diffusion cells were dismantled, and the skin was rinsed with aqua purificata to remove residuals of the liquid solutions. […] The extracts were then diluted with acceptor medium, filtrated and analyzed with HPLC analogue to the permeation samples.

For `CC(C)N(CCCCOCC(=O)O)c1cnc(-c2ccccc2)c(-c2ccccc2)n1` [MRE-269], the “Onset of release of MRE-269 compared to Selexipag in acceptor medium (FIG. 7 vs FIG. 8)” value (fresh human skin, acceptor medium, cumulative data) is given as “starts slower”. In addition, for the setting “liquid Selexipag solutions (Compositions 1 and 2) on fresh human skin, 500 μm, 32° C., sampling 24-48-120-144-168 hrs, HPLC”, the “Detection of active metabolite MRE-269 in permeation samples and skin extraction samples” value is “detected at each sampling timepoint in all permeation samples as well as in the skin extraction samples”.
